The record followed here is patent US6878388B1, “Vanadium compounds for treating proliferative cell disorders” (Parker Hughes Institute, priority 2000, dated 2005).

The structures appear in SMILES notation.

Assay [1] has as its system intracranial U87 glioblastoma. Description: Nude mouse model of intracranial glioblastoma. The assay is classed as in vivo, NCr nude mice. The text has this:
FIG. 2 illustrates the in vivo antitumor activity of [VO(SO4)(Me2-Phen)2] against intracranial U87 glioblastoma in nude mice. A representative survival curve of [VO(SO4)(Me2-Phen)2]-treated (n=8) and control (n=9) mice is shown.
The animal protocols used in this study were approved by the Parker Hughes Institute Institutional Animal Care and Use Committee (IACUC). Female CB.17 severe combined immuno-deficient (SCID) and NCr nude mice were obtained from Taconic (Germantown, N.Y.) and housed in a specific pathogen-free room located in a secure indoor facility with controlled temperature, humidity, and noise levels. Mice were housed in microisolater cages and fed with autoclaved rodent chow. Water was also autoclaved and supplemented with trimethoprim/sulfomethoxazol 3 days/week.
Nude mice were anesthetized with Avertin (2,2,2-tribromoethanol in tert-amyl alcohol; Aldrich Chemical Co., Milwaukee, Wis.) at a dose of 0.5 mg/g under aseptic conditions in a laminar flow hood. A small hole was drilled through the skull 2 mm to the right of the midline and 2 mm posterior to the bregma. U87 glioblastoma cells (4×10^5 cells in 10 μl of PBS) were intracranially implanted into the right side of the cerebral hemisphere of the mice using a Hamilton syringe fitted to a stereotaxic apparatus with a mouse adaptor (David Kopf Instruments, Tujunga, Calif.) as described earlier (34). Twenty-four hours after inoculation, mice were treated intraperitoneally with [VO(SO4)(Me2-Phen)2] (10 mg/kg/day, n=10) or vehicle (5% DMSO in PBS, n=11) for ten consecutive days. […] The grains were then fixed in formalin, processed for histopathology and the tumor volumes from histological sections were measured as described earlier (Haung et al., J. Biol Chem, 272; 2927-2935, 1997). the remaining mice were monitored twice a day for survival.
Following intracranial implantation of 4×10^5 U87 glioblastoma cells (in 10 μl of PBS) into the right cerebral hemispheres of NCr […] mice [VO(SO4)(Me2-Phen)2] […] The mice wee monitored twice a day for health status. […]

The subject of assay [2] is MDA-MB-231 cells. Description: In vitro invasion assay, Matrigel-coated Boyden chambers, MDA-MB-231. The assay is classed as cell-based, human. The following applies: 24 h preincubation, 3 experiments, read-out: Mean IC50 inhibition of invasion through Matrigel matrix. On the procedure:
Tumor invasion of the basement membrane is a crucial step in the complex multistage process that leads to metastatic spread. Tumor cells cross the basement membrane as they initially invade the lymphatic or vascular beds during dissemination and as they penetrate their target tissues. […]
Invasion of cancer cells treated with [VO(SO4)(Me2-Phen)2] was assayed using Matrigel-coated Costar 24-well transwell cell culture chambers (“Boyden chambers”) with 8.0-μm-pore polycarbonate filter inserts as described previously (Narla et al., Clin Cancer Res, 4: 2463-2471, 1998; Ghosh et al., Anticancer Drug Des, 14: 403-410, 1999; Albini et al., J Cell Biol, 105: 1867-1872, 1987). […] The cells were trypsinized, washed twice with serum-free medium containing BSA, counted and resuspended in a serum-free medium at 1×10^5 cells/ml. […] The invasive cells that migrated to the lower side of the filter were fixed, stained with Hema-3 solution and counted under a light microscope. Five to 10 random fields per filter were counted to determine the invasive fraction. The invasive fractions of cells treated with [VO(SO4)(Me2-Phen)2] were compared to those of DMSO-treated control cells and the percent inhibition of invasiveness was determined. […]

With `Cc1ccnc2c1ccc1c(C)ccnc12.Cc1ccnc2c1ccc1c(C)ccnc12.O=S(=O)([O-])[O-].[O]=[V+2]` [[VO(SO4)(Me2-Phen)2], bis(4,7-dimethyl-1,10-phenanthroline) sulfatooxovanadium (IV)], in assay [1] (10 mg/kg/day i.p. for ten consecutive days), the “mice remaining alive for >24 days” value is “over 60%”. The same compound registered a median survival time in assay [1] (10 mg/kg/day i.p. for ten consecutive days, control 19.6±0.6 days, P=0.0002) of 24.4 ± 0.8 days. Further, the “average tumor volume, fold less than vehicle-treated control” value in assay [1] (17 days after tumor cell inoculation, histological sections, two mice per group) is “approximately 2.9 fold”. In assay [2], the IC50 came to 600 ± 300 nM.
